Experimental data taken from patent US20060252807A1, “Novel ortho-terphenyl inhibitors of p38 kinase and methods of treating inflammatory disorders” (Kalypsys, Inc., priority 2005, published 2006).
pIC50: −log10 of the molar value.

Molecular target: T1, active p38 alpha enzyme (Upstate Biotechnology) (Homo sapiens, UniProt Q16539)
T1 construct: purchased Upstate Biotechnology
Experiment: p38α biochemical assay (ATP turnover, luminescent detection, Cambrex PKlight)
Settings: p38α biochemical assay, Table 1 Biological Activity
Description: The p38α biochemical assay employed is based on measurement of total ATP turnover following enzyme incubation with substrate in the presence of ATP with the use of a luminescent detection reagent (Cambrex PKlight). The assays were performed in 1536-well white opaque plates.
The final volume was 7.5005 μL as prepared prepared from the addition of 5 ul of kinase reaction (p38 alpah+MapkapK2+ATP) with 0.0005 μL compound dissolved in DMSO, and 2.5 ul of the detection reagent. Assay buffer contains the following reagents to give final concentration in the assay: 200 mM Tris, 100 mM MgCl2, 1.5 mM EGTA, 4 mM CaCl2, 20 mM MOPS, 1 mM EDTA, 1% glycerol, 0.1% B-Mecaptoethanol, and 1 mg/ml BSA. Test compounds are pinned using proprietary pintool technology (Kalypsys, Inc) and delivered as […] amounts into the 5 ul mixture of active p38 alpha enzyme (Upstate Biotechnology) and MapkapK2 (Upstate Biotechnology) whole protein as a substrate for phosphorylation in the presence of 1.4 uM final concentration ATP. Reactions are incubated at 30C for 2 hours and detection reagent is added in 2.5 ul/well amounts. Assay is read using a Perkin Elmer Viewlux.

T1 sequence (Q16539 whole entry): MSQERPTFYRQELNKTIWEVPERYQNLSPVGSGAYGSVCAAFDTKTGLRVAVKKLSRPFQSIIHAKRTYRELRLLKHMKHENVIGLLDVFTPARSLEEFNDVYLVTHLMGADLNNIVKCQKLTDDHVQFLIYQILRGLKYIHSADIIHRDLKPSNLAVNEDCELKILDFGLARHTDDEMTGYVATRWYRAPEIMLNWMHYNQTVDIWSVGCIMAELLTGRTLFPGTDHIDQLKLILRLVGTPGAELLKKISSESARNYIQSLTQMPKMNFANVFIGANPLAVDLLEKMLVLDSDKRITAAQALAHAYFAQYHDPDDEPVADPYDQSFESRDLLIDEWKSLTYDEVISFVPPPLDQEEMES

SMILES	pIC50
COc1cc(C(=O)NCc2onc(-c3ccc(F)cc3)c2-c2nc(C(=O)NC(C)C)cs2)cc(OC)c1O [Example 741]	< 6.00
CC(C)NC(=O)c1csc(-c2oc(CNC(=O)c3cc(F)c(F)cc3[N+](=O)[O-])nc2-c2ccc(F)cc2)n1 [Example 278]	≥ 6.00
CC(C)Cc1ccc(C(C)C(=O)N2CCN(Cc3nc(-c4ccc(F)cc4)c(-c4nc(C(=O)NC(C)C)cs4)o3)CC2)cc1 (stereo not shown) [Example 517]	≥ 6.00
CC(C)NC(=O)c1csc(-c2oc(CN3CCN(C(=O)c4cc(F)ccc4[N+](=O)[O-])CC3)nc2-c2ccc(F)cc2)n1 [Example 473]	< 6.00
CC(C)NC(=O)c1csc(-c2c(-c3ccc(F)cc3)noc2CNC(=O)C(F)(F)F)n1 [Example 583]	≥ 6.00
CC(C)NC(=O)c1csc(-c2oc(CNC(=O)/C=C/c3ccccc3C(F)(F)F)nc2-c2ccc(F)cc2)n1 [Example 296]	< 6.00
CC(C)NC(=O)c1csc(-c2oc(CNC(=O)c3c(O)ccc4ccccc34)nc2-c2ccc(F)cc2)n1 [Example 243]	< 6.00
CC(C)CC(NC(=O)OC(C)(C)C)C(=O)N1CCN(Cc2nc(-c3ccc(F)cc3)c(-c3nc(C(=O)NC(C)C)cs3)o2)CC1 (stereo not shown) [Example 566]	< 6.00
COc1cc(OC)c(C(=O)NCc2onc(-c3ccc(F)cc3)c2-c2nc(C(=O)NC(C)C)cs2)c(OC)c1 [Example 758]	< 6.00
CC(C)NC(=O)c1csc(-c2c(-c3ccc(F)cc3)nc3ncccn23)n1 [Example 97, 2-|2-(4-Fluoro-phenyl)-imidazo|1,2-a|pyrimidin-3-yl|-thiazole-4-carboxylic acid isopropylamide]	< 6.00
CC(C)NC(=O)c1csc(-c2oc(CNC(=O)C(Cc3ccccc3)NC(=O)OC(C)(C)C)nc2-c2ccc(F)cc2)n1 (stereo not shown) [Example 331]	≥ 6.00
CC(C)NC(=O)c1csc(-c2c(-c3ccc(F)cc3)noc2CNC(=O)Cc2cccc(O)c2)n1 [Example 619]	≥ 6.00
COc1cc(OC)c(C(=O)NCc2onc(-c3ccc(F)cc3)c2-c2nc(C(=O)NC(C)C)cs2)cc1OC [Example 759]	< 6.00
CC(C)NC(=O)c1csc(-c2oc(CNC(=O)Cc3ccc(O)c(F)c3)nc2-c2ccc(F)cc2)n1 [Example 191]	≥ 6.00
O=C(NCC1CC1)c1csc(-c2c(-c3ccc(F)cc3)n[nH]c2C2CCNCC2)n1 [Example 69, 2-|3-(4-Fluoro-phenyl)-5-piperidin-4-yl-1H-pyrazol-4-yl|-thiazole-4-carboxylic acid cyclopropylmethyl-amide]	≥ 6.00
CC(C)NC(=O)c1csc(-c2oc(CNC(=O)Cc3cccc(O)c3)nc2-c2ccc(F)cc2)n1 [Example 144]	≥ 6.00
CC(C)NC(=O)c1csc(-c2c(-c3ccc(F)cc3)noc2CNC(=O)C2CCCO2)n1 (stereo not shown) [Example 584]	< 6.00
Cc1ccc([N+](=O)[O-])c(C(=O)N2CCN(Cc3nc(-c4ccc(F)cc4)c(-c4nc(C(=O)NC(C)C)cs4)o3)CC2)c1 [Example 459]	< 6.00
CC(C)NC(=O)c1csc(-c2oc(CNC(=O)CCc3nc4ccccc4[nH]3)nc2-c2ccc(F)cc2)n1 [Example 250]	≥ 6.00
CC(C)NC(=O)c1csc(-c2oc(CNC(=O)c3cc(Cl)ccc3O)nc2-c2ccc(F)cc2)n1 [Example 196]	< 6.00
Cc1ccc(C(=O)NCc2onc(-c3ccc(F)cc3)c2-c2nc(C(=O)NC(C)C)cs2)cc1C [Example 614]	< 6.00
Cc1cc(C)c(C(=O)NCc2onc(-c3ccc(F)cc3)c2-c2nc(C(=O)NC(C)C)cs2)c(C)c1 [Example 650]	< 6.00
CC(=O)NCc1nc(-c2ccc(F)cc2)c(-c2nc(C(=O)NC(C)C)cs2)[nH]1 [Example 85, 2-|2-(Acetylamino-methyl)-5-(4-fluoro-phenyl)-3H-imidazol-4-yl|-thiazole-4-carboxylic acid isopropylamide]	≥ 6.00
CC(C)NC(=O)c1csc(-c2oc(CNC(=O)c3cc(Cl)ccc3[N+](=O)[O-])nc2-c2ccc(F)cc2)n1 [Example 275]	≥ 6.00

Same assay, conditions: p38α kinase; Table 1 Biological Activity

SMILES	pIC50
Cc1ccc(NCc2nc(-c3ccc(F)cc3)c(-c3nc(C(=O)NC(C)C)cs3)o2)cc1Cl [Example 1345]	< 6.00
CC(C)NC(=O)c1csc(-c2c(-c3ccc(F)cc3)n[nH]c2C2CCN(C(=O)c3cc(Cl)ccc3O)CC2)n1 [Example 910]	< 6.00
CC(C)NC(=O)c1csc(-c2c(-c3ccc(F)cc3)noc2CN2CCSC2)n1 [Example 1521]	< 6.00
Cc1[nH]nc(-c2ccc(F)cc2)c1-c1nc(C(=O)NC(C)C)ns1 [Example 2195, 5-|3-(4-Fluoro-phenyl)-5-methyl-1H-pyrazol-4-yl|-|1,2,4|thiadiazole-3-carboxylic acid isopropylamide]	< 6.00
CC(C)Cc1ccc(C(C)C(=O)N2CCC(c3[nH]nc(-c4ccc(F)cc4)c3-c3nc(C(=O)NC(C)C)cs3)CC2)cc1 (stereo not shown) [Example 994]	< 6.00
Cc1ccc(N2CCN(Cc3onc(-c4ccc(F)cc4)c3-c3nc(C(=O)NC(C)C)cs3)CC2)cc1C [Example 1592]	< 6.00
Cc1nc(-c2ccc(F)cc2)c(-c2nc(C(=O)NCCc3ccc(O)cc3)cs2)s1 [Example 1777]	≥ 6.00
CCCCc1ccc(C(=O)N2CCC(c3[nH]nc(-c4ccc(F)cc4)c3-c3nc(C(=O)NC(C)C)cs3)CC2)cc1 [Example 922]	< 6.00
O=C(NCc1cccc(C(F)(F)F)c1)c1csc(-c2c(-c3ccc(F)cc3)n[nH]c2C2CCNCC2)n1 [Example 2144]	< 6.00
O=C(NCc1ccccn1)c1csc(-c2c(-c3ccc(F)cc3)n[nH]c2C2CCNCC2)n1 [Example 2063]	< 6.00
Cc1nc(-c2ccc(F)cc2)c(-c2nc(C(=O)NCCc3ccc(S(N)(=O)=O)cc3)cs2)s1 [Example 1828]	≥ 6.00
Cc1nc(-c2ccc(F)cc2)c(-c2nc(C(=O)NC3CCCc4ccccc43)cs2)s1 (stereo not shown) [Example 1701]	< 6.00
CC(C)NC(=O)c1csc(-c2oc(CNc3cc(F)c(F)cc3F)nc2-c2ccc(F)cc2)n1 [Example 1347]	< 6.00
COc1cc(/C=C/C(=O)N2CCC(c3[nH]nc(-c4ccc(F)cc4)c3-c3nc(C(=O)NC(C)C)cs3)CC2)ccc1O [Example 975]	< 6.00
CCOC(=O)CC1C(=O)NCCN1Cc1onc(-c2ccc(F)cc2)c1-c1nc(C(=O)NC(C)C)cs1 (stereo not shown) [Example 1583]	< 6.00
CC(C)NC(=O)c1csc(-c2c(-c3ccc(F)cc3)noc2CNCCc2ccc(S(N)(=O)=O)cc2)n1 [Example 1503]	< 6.00
CCN(Cc1nc(-c2ccc(F)cc2)c(-c2nc(C(=O)NC(C)C)cs2)o1)C1CCCCC1 [Example 1218]	< 6.00
CCOC(=O)C1CCN(Cc2onc(-c3ccc(F)cc3)c2-c2nc(C(=O)NC(C)C)cs2)CC1 [Example 1562]	< 6.00
CC(C)NC(=O)c1csc(-c2c(-c3ccc(F)cc3)noc2CNc2ccc3c(c2)OCCO3)n1 [Example 1677]	< 6.00

SMILES	pIC50
CC(C)NC(=O)c1csc(-c2oc(CN3CCN(CC4CCCCC4)CC3)nc2-c2ccc(F)cc2)n1 [Example 1255]	< 6.00
COc1ccccc1NCc1nc(-c2ccc(F)cc2)c(-c2nc(C(=O)NC(C)C)cs2)o1 [Example 1326]	< 6.00
O=C(NCc1ccccc1OC(F)(F)F)c1csc(-c2c(-c3ccc(F)cc3)n[nH]c2C2CCNCC2)n1 [Example 2152]	< 6.00
CC(=O)Oc1ccc(C(=O)N2CCC(c3[nH]nc(-c4ccc(F)cc4)c3-c3nc(C(=O)NC(C)C)cs3)CC2)cc1 [Example 927]	< 6.00
Cc1ccc(NC(=O)c2csc(-c3sc(C)nc3-c3ccc(F)cc3)n2)nc1 [Example 1959]	< 6.00
Cc1nc(-c2ccc(F)cc2)c(-c2nc(C(=O)Nc3cc(C(F)(F)F)ccc3F)cs2)s1 [Example 2014]	< 6.00
Cc1ccc(C)c(N2CCN(C(=O)c3csc(-c4sc(C)nc4-c4ccc(F)cc4)n3)CC2)c1 [Example 1919]	< 6.00
COc1cccc(CCNC(=O)c2csc(-c3c(-c4ccc(F)cc4)n[nH]c3C3CCNCC3)n2)c1 [Example 2120]	< 6.00
O=C(NCC1CCCO1)c1csc(-c2c(-c3ccc(F)cc3)n[nH]c2C2CCNCC2)n1 (stereo not shown) [Example 2056]	< 6.00
CC(C)NC(=O)c1csc(-c2c(-c3ccc(F)cc3)n[nH]c2C2CCN(C(=O)CCc3cccc(C(F)(F)F)c3)CC2)n1 [Example 1014]	< 6.00
CC(C)NC(=O)c1csc(-c2c(-c3ccc(F)cc3)noc2CNC2CCCCC2C)n1 (stereo not shown) [Example 1423]	< 6.00
Cc1nc(-c2ccc(F)cc2)c(-c2nc(C(=O)Nc3ccccc3C)cs2)s1 [Example 1958]	< 6.00
COc1cccc(NC(=O)c2csc(-c3sc(C)nc3-c3ccc(F)cc3)n2)c1 [Example 1972]	< 6.00
Cc1cccc(C(=O)N2CCC(c3[nH]nc(-c4ccc(F)cc4)c3-c3nc(C(=O)NC(C)C)cs3)CC2)c1 [Example 835]	< 6.00
CC(C)NC(=O)c1csc(-c2oc(CNCCc3c[nH]c4ccccc34)nc2-c2ccc(F)cc2)n1 [Example 1157]	< 6.00
COc1cc(CN(C)C(=O)c2csc(-c3sc(C)nc3-c3ccc(F)cc3)n2)cc(OC)c1OC [Example 1936]	≥ 6.00
Cc1nc(-c2ccc(F)cc2)c(-c2nc(C(=O)NCCc3ccc(F)cc3)cs2)s1 [Example 1782]	< 6.00
CC(C)NC(=O)c1csc(-c2c(-c3ccc(F)cc3)n[nH]c2C2CCN(C(=O)CCc3cccc(Br)c3)CC2)n1 [Example 1024]	< 6.00
